Measurements as given in PubChem BioAssay AID2842 (Southern Research Institute, 2010).
Values after ≈ are worked out from the molar mass of the structure shown.

These compounds were tested on M. tuberculosis H37Rv growth inhibition (assay: Mycobacterium tuberculosis H37Rv growth inhibition, putative kinase inhibitor library, confirmatory dose response (AID 2842);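 note: bacteria incubated one week before Alamar blue readout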).
In the case of `COc1cccc(-c2nnc(NC(=O)C(C)C)o2)c1`, the IC90 is reported as 32.7 µg/mL (≈ 125 µM).
With `Oc1cc(OCc2ccccc2Cl)ccc1-c1[nH]ncc1-c1ccccc1` the IC90 was 7.69 µg/mL (≈ 20.4 µM).
`COc1cccc(OCCN2CCN(c3cc(C)nc4c(-c5ccccc5)cnn34)CC2)c1` showed an IC90 of 12 µg/mL (≈ 27 µM).
`O=C(Cc1cccc2ccccc12)Nc1nnc(-c2cccs2)o1` was tested, and the IC90 was 40.1 µg/mL (≈ 120 µM).
Work on `CC(C)N1CCc2c(sc(NC(=O)c3ccc(S(=O)(=O)N(C)c4ccccc4)cc3)c2C(N)=O)C1` yielded an IC90 of 12.8 µg/mL (≈ 25 µM).
For `Cc1[nH]c2ccccc2c1SCCNC(=O)c1cc2ccccc2oc1=O`, the IC90 was less than 0.2 µg/mL.
With `CCc1ccc(-c2nnc3c4cc5c(cc4n(Cc4ccc(C)cc4)cc2-3)OCCO5)cc1` the IC90 was 15.3 µg/mL (≈ 35 µM).
In the case of `COc1cccc(C(=O)Nc2nc3c(s2)CCc2ccccc2-3)c1`, the IC90 is reported as 11.3 µg/mL (≈ 33.6 µM).
Compound `Cc1ccccc1C(=O)Nc1nnc(-c2ccncc2)o1` has an IC90 of 13.5 µg/mL (≈ 48.2 µM).
`COc1ccc(C)c2sc(N(CCCn3ccnc3)C(=O)Cc3ccccc3)nc12` showed an IC90 of 21.1 µg/mL (≈ 50.3 µM).
`O=C(Nc1nnc(-c2ccc(Br)cc2)o1)c1ccc(S(=O)(=O)N2CCOCC2)cc1` was tested, and the IC90 was 5.28 µg/mL (≈ 10.7 µM).
In the case of `O=C(Nc1cccc(-c2ccc3nnc(-c4cccnc4)n3n2)c1)c1ccc(F)cc1F`, the IC90 is reported as 27.6 µg/mL (≈ 64.5 µM).
Compound `Cc1ccc(C)c(C(=O)Nc2nnc(-c3cc(C)ccc3C)o2)c1` has an IC90 of 2.56 µg/mL (≈ 7.97 µM).
With `O=C(Nc1nnc(-c2cccs2)o1)c1cc(-c2ccccc2)nc2ccccc12` the IC90 was 0.53 µg/mL (≈ 1.33 µM).
In the case of `CC(C)c1cc(-c2nc(-c3ccccc3)no2)n[nH]1`, the IC90 is reported as 12.7 µg/mL (≈ 49.9 µM).
With `CS(=O)(=O)Nc1cccc(C2=NN(c3nc(-c4ccccc4)c4cc(Cl)ccc4n3)C(c3ccccc3F)C2)c1` (stereo not given) the IC90 was 6.67 µg/mL (≈ 11.7 µM).
For `O=C(Nc1nnc(-c2ccc(Cl)s2)o1)c1ccc(Br)s1`, the IC90 was 11.6 µg/mL (≈ 29.8 µM).
`COc1cc2c3nnc(-c4ccc(C)c(C)c4)c-3cn(Cc3ccccc3)c2cc1OC` gave an IC90 of 7.35 µg/mL (≈ 17.4 µM).
`NC(=O)c1c(Nc2nc3ccc(F)cc3s2)sc2c1CCCC2` gave an IC90 of 51.3 µg/mL (≈ 148 µM).
Compound `CC1(C)Cc2c(sc(NC(=O)c3ccc(Oc4ccccc4)cc3)c2C(N)=O)C(C)(C)N1` has an IC90 of 6.22 µg/mL (≈ 13.8 µM).
Work on `Cc1ccc2nc(NNC(=O)c3cccc(F)c3)sc2c1` yielded an IC90 of 7.65 µg/mL (≈ 25.4 µM).
With `CCCCCOc1ccc(C(=O)Nc2nnc(-c3ccco3)o2)cc1` the IC90 was 8.78 µg/mL (≈ 25.7 µM).
In the case of `COc1ccccc1-c1cnn2c(NC3CCCCC3)cc(C)nc12`, the IC90 is reported as 13.5 µg/mL (≈ 40.2 µM).
For `CC1CCCN(c2nc3c(c(=O)[nH]c(=O)n3C)n2CCCSc2nc3ccccc3s2)C1` (stereo not given), the IC90 was 16.6 µg/mL (≈ 35.3 µM).
`COc1ccc(Cl)c2sc(N(CCCn3ccnc3)C(=O)Cc3ccccc3)nc12` gave an IC90 of 1.65 µg/mL (≈ 3.74 µM).
`COC(=O)CSCC(=O)Nc1nnc(-c2ccccc2C)s1` gave an IC90 of 13.7 µg/mL (≈ 40.7 µM).
With `COc1ccccc1C(=O)Nc1nnc(-c2cc(C)ccc2C)o1` the IC90 was 1.92 µg/mL (≈ 5.94 µM).
Compound `Cc1cccc(N2CCN(C(=O)CCCCCn3c(=O)[nH]c4ccsc4c3=O)CC2)c1C` has an IC90 of 20.9 µg/mL (≈ 46 µM).
Compound `O=C(Nc1nnc(-c2ccc(F)cc2)o1)c1ccc2c(c1)CCCC2` has an IC90 of 8.65 µg/mL (≈ 25.6 µM).
For `Fc1cccc2sc(Nc3nnc(-c4ccccc4)o3)nc12`, the IC90 was 9.14 µg/mL (≈ 29.3 µM).
Work on `O=C(Nc1nnc(-c2ccc3c(c2)CCCC3)o1)c1ccccc1Br` yielded an IC90 of less than 0.2 µg/mL.
`Cc1ccc(C)c(-c2nnc(NC(=O)c3ccc(Cl)s3)o2)c1` was tested, and the IC90 was 26.4 µg/mL (≈ 79.2 µM).
`CC1Cc2cc(-c3nn(-c4ccccc4)cc3/C=C3\SC(=S)NC3=O)ccc2O1` (stereo not given) showed an IC90 of 1.79 µg/mL (≈ 4.27 µM).
`CC(=O)N1CCc2c(sc(NC(=O)c3ccc(C)cc3)c2C(N)=O)C1` gave an IC90 of 8.93 µg/mL (≈ 25 µM).
With `O=C1CN(C(=O)c2cccc3ccccc23)C(c2ccc(F)cc2)c2cc(Br)ccc2N1` (stereo not given) the IC90 was 10.2 µg/mL (≈ 20.8 µM).
With `Cc1ccc(C)c(-c2nnc(NC(=O)c3cccc(Cl)c3)o2)c1` the IC90 was 16.3 µg/mL (≈ 49.8 µM).
Work on `O=C(Nc1nnc(-c2ccco2)o1)c1ccc2c(c1)OCCO2` yielded an IC90 of 11.6 µg/mL (≈ 37.1 µM).
With `Oc1ccc(Br)cc1C1CC(c2ccoc2)=NN1` (stereo not given) the IC90 was 25.3 µg/mL (≈ 82.4 µM).
`COc1cccc2sc(Nc3nnc(-c4cccs4)o3)nc12` gave an IC90 of 3.36 µg/mL (≈ 10.2 µM).
In the case of `Cc1nnc2ccc(-c3cccc(NC(=O)COc4ccc(Cl)cc4)c3)nn12`, the IC90 is reported as 23.5 µg/mL (≈ 59.6 µM).
`Cc1cc(C)cc(OCCCn2c(CO)nc3ccccc32)c1` gave an IC90 of 14 µg/mL (≈ 45 µM).
Compound `Cc1ccc(C(=O)Nc2nnc(-c3ccncc3)o2)cc1` has an IC90 of 13.4 µg/mL (≈ 47.7 µM).
In the case of `CCN(CC)S(=O)(=O)c1ccc(C(=O)Nc2nnc(-c3cc(C)ccc3C)o2)cc1`, the IC90 is reported as 13.1 µg/mL (≈ 30.5 µM).
In the case of `O=C(Nc1nnc(-c2cc(Cl)ccc2Cl)o1)c1ccco1`, the IC90 is reported as 27.5 µg/mL (≈ 84.8 µM).
Work on `C=CCOC(=O)COc1ccc2c(C)c(-c3ccccc3)c(=O)oc2c1` yielded an IC90 of 0.85 µg/mL (≈ 2.43 µM).
